Assay results reported in the kinase profiling compilation of Christmann-Franck et al. (2016).

Legend:
Conditions in all cases: compound 10.0 µM
[1] = test system: EGFR (human), P00533 [T790M]
[2] = test system: EGFR (human), P00533 [A750P; 747-749 del]
CSF1R (human) = CSF1R (human) (UniProt P07333)
[3] = test system: PIK3CA (human), P42336 [Q546K]
[4] = test system: ABL1 (human), P00519 [M351T]
PAK2 (human) = PAK2 (human) (UniProt Q13177)
CLK2 (human) = CLK2 (human) (UniProt P49760)
[5] = test system: EGFR (human), P00533 [L858R]
NTRK3 (human) = NTRK3 (human) (UniProt Q16288)
[6] = test system: KIT (human), P10721 [A829P]
[7] = test system: PIK3CA (human), P42336 [C420R]
ABL2 (human) = ABL2 (human) (UniProt P42684)
[8] = test system: ABL1 (human), P00519 [Y253F]
LCK (human) = LCK (human) (UniProt P06239)
LCK (human), sequence (P06239 whole entry, looked up): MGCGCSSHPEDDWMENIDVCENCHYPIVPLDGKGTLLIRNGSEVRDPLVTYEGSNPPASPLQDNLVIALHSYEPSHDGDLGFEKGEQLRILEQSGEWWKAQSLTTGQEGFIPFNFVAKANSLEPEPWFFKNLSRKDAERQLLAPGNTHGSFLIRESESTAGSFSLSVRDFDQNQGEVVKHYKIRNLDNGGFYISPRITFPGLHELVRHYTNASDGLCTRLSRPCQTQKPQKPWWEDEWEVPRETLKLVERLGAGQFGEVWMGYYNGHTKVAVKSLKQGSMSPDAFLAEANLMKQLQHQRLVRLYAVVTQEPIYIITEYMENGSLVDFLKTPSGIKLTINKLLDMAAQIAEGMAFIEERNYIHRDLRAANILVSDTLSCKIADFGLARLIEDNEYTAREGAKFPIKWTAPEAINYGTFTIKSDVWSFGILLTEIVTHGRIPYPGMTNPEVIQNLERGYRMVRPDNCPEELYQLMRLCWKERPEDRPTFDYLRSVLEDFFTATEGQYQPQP

NTRK3 (human), sequence (Q16288 whole entry, looked up): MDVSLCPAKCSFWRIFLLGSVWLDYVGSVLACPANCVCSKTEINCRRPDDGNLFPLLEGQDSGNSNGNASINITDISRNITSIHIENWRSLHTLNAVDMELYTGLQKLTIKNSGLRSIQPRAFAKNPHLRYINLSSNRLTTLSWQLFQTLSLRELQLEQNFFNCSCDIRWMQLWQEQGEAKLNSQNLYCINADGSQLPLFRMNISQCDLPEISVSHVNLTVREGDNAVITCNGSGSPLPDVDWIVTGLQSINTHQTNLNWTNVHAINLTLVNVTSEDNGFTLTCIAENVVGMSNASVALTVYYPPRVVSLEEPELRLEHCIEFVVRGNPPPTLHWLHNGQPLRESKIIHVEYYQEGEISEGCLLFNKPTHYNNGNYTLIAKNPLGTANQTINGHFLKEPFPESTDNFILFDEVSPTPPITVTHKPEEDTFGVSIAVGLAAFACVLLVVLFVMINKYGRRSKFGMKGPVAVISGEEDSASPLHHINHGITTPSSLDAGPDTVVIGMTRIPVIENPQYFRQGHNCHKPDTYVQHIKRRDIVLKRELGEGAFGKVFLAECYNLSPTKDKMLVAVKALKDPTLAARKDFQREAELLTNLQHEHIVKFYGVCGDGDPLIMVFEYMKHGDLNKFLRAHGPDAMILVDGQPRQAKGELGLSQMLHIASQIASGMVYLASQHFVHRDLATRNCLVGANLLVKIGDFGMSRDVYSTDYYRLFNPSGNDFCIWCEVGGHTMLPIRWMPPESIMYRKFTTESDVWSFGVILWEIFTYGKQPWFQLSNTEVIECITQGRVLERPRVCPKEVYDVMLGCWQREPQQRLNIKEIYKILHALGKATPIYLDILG
PIK3CA (human), P42336 [C420R], sequence (P42336 whole entry C420R, looked up): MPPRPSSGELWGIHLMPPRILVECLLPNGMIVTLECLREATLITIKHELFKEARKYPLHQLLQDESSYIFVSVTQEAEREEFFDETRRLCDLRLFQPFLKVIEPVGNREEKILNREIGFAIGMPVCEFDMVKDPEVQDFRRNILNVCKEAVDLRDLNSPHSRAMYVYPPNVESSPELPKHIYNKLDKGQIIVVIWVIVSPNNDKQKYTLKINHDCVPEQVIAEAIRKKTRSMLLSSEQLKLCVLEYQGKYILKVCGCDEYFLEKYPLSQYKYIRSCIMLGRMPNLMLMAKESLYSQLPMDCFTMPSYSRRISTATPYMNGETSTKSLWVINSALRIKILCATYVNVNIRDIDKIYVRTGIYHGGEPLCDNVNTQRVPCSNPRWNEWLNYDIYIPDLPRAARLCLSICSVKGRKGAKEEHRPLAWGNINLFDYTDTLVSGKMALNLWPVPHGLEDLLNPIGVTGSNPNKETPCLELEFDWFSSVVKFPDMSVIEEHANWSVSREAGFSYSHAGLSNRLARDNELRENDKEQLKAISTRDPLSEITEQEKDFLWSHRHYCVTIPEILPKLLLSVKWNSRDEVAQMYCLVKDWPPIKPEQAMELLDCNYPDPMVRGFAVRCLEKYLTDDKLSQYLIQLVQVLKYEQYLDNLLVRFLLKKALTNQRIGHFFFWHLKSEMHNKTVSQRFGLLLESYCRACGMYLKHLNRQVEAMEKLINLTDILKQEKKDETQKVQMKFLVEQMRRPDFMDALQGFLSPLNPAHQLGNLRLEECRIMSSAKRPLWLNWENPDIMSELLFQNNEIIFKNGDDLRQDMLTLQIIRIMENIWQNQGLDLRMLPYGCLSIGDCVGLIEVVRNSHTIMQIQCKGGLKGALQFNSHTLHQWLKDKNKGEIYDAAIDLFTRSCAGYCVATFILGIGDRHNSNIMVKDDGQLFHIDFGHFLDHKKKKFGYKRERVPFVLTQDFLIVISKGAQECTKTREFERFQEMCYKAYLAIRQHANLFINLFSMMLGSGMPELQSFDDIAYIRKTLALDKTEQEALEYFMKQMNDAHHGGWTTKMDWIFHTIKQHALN
PAK2 (human), sequence (Q13177 whole entry, looked up): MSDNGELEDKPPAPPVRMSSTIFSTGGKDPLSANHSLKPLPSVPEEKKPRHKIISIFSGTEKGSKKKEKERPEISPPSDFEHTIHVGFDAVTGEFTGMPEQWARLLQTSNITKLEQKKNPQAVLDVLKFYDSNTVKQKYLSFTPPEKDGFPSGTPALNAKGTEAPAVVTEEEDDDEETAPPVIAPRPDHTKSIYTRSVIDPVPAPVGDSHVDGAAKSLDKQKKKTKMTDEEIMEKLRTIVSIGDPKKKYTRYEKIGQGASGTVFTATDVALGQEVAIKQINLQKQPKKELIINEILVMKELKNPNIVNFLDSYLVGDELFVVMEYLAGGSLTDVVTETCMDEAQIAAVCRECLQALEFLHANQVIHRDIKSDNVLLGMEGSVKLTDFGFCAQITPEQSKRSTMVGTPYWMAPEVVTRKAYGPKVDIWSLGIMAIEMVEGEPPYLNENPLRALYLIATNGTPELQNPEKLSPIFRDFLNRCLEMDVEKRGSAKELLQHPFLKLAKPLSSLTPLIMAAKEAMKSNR
ABL2 (human), sequence (P42684 whole entry, looked up): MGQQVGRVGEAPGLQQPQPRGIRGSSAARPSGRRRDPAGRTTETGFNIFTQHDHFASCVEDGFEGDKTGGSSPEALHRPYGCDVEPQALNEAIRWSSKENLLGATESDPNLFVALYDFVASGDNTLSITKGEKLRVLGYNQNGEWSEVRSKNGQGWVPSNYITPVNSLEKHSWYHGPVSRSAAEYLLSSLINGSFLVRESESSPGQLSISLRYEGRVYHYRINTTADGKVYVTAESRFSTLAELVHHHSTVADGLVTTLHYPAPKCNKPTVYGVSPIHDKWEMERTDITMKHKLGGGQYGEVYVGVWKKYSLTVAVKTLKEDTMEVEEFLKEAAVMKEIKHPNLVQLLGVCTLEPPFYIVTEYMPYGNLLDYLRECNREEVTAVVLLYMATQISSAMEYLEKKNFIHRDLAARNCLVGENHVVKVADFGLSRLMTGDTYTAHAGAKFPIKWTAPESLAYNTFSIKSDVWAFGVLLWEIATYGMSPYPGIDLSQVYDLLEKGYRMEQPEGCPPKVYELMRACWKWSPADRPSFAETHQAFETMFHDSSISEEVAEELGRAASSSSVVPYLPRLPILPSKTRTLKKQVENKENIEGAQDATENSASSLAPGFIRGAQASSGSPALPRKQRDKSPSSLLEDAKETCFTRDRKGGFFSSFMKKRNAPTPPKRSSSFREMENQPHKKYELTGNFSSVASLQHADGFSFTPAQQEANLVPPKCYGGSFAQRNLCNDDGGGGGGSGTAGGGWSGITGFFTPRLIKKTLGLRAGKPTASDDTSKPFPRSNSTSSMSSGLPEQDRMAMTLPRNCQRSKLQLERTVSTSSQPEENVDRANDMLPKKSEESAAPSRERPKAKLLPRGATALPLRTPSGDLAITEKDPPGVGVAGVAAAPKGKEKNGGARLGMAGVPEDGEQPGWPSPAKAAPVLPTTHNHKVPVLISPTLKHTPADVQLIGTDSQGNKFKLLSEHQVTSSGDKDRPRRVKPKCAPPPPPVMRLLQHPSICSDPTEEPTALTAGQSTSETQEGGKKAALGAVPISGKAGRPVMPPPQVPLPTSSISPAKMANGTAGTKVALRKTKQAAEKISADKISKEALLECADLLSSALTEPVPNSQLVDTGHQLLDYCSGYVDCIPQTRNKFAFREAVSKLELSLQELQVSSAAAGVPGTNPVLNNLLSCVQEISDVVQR
PIK3CA (human), P42336 [Q546K], sequence (P42336 whole entry Q546K, looked up): as the sequence (P42336 whole entry C420R, looked up) above, with R420C, Q546K counted along it
CLK2 (human), sequence (P49760 whole entry, looked up): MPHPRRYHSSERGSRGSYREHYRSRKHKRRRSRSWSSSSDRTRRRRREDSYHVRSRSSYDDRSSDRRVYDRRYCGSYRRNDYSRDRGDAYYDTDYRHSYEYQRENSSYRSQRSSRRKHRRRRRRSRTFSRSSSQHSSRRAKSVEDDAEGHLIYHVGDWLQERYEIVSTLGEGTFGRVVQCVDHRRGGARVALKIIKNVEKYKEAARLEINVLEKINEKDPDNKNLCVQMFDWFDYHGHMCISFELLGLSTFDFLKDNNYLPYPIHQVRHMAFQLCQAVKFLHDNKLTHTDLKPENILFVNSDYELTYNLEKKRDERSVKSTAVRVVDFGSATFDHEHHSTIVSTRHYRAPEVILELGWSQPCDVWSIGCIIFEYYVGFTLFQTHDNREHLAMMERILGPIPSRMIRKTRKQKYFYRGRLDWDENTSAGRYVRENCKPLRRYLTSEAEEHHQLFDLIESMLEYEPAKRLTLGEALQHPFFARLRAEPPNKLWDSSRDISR

`CNC(=O)c1cc(Oc2ccc(NC(=O)Nc3ccc(Cl)c(C(F)(F)F)c3)cc2)cc[n+]1[O-]` showed a per cent of control [1] of 100%, a per cent of control [2] of 70% and a per cent of control (CSF1R (human)) of 0%. For the same molecule, the per cent of control [3] was 100%, the per cent of control [4] was 21% and the per cent of control (PAK2 (human)) was 93%. For the same molecule, the per cent of control (CLK2 (human)) was 80%, the per cent of control [5] was 88% and the per cent of control (NTRK3 (human)) was 0.35%. It also gave a per cent of control [6] of 26%, a per cent of control [7] of 40% and a per cent of control (ABL2 (human)) of 25%. It also gave a per cent of control [8] of 30% and a per cent of control (LCK (human)) of 2.5%.
